The source of these data is ChEMBL document CHEMBL2440046, “Anabaseine analogues as modulators of nicotinic acetylcholine receptor” (ACS Med Chem Lett, 2013).

pKi: −log10 of the molar value.

The target in test [1] is Neuronal acetylcholine receptor; alpha4/beta2 (Rattus norvegicus, UniProt P09483+P12390). Briefly: Displacement of [3H]-cytisine from Sprague-Dawley rat brain alpha4beta2 nAChR after 4 hrs by liquid scintillation counting analysis. A general note: Loss of bound radioactivity is the signal in a displacement assay; it reports binding, not function.
Chain of Neuronal acetylcholine receptor; alpha4/beta2 (P09483 whole entry): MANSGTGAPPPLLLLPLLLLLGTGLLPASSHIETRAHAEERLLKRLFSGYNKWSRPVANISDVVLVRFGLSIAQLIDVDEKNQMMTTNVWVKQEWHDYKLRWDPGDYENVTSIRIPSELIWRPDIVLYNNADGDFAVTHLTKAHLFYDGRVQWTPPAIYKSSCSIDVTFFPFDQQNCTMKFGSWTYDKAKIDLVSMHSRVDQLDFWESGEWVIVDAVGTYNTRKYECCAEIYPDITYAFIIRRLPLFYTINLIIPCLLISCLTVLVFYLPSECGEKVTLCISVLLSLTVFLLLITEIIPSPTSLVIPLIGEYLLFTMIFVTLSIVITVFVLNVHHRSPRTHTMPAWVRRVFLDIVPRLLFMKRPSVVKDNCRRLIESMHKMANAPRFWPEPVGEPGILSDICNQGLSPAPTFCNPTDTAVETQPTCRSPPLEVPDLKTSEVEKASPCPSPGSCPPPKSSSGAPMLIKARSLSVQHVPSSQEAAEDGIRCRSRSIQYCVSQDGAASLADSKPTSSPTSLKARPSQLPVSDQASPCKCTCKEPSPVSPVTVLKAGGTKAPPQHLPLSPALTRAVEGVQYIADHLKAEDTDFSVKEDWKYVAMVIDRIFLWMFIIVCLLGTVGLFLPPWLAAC
Chain of Neuronal acetylcholine receptor; alpha4/beta2 (P12390 whole entry): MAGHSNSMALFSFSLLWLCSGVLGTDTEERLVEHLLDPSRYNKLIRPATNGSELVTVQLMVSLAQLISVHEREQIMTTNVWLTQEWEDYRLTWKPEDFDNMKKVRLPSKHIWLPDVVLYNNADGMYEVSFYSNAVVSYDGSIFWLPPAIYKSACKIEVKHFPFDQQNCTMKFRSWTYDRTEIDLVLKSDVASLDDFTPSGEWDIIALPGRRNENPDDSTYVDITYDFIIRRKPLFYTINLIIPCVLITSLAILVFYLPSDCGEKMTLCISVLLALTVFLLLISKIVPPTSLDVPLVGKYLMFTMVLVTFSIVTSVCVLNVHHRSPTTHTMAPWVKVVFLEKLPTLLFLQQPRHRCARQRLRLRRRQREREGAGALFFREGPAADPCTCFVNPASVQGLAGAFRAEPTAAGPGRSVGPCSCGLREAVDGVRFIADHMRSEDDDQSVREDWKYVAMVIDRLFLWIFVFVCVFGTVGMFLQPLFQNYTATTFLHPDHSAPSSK
Test [2] concerns the target Neuronal acetylcholine receptor subunit alpha-7 (Rattus norvegicus, UniProt Q05941). Briefly: Displacement of [125I]-alpha-bungarotoxin from Sprague-Dawley rat brain alpha7 nAChR after 3 hrs by liquid scintillation counting analysis.

Chain of Neuronal acetylcholine receptor subunit alpha-7 (Q05941 whole entry): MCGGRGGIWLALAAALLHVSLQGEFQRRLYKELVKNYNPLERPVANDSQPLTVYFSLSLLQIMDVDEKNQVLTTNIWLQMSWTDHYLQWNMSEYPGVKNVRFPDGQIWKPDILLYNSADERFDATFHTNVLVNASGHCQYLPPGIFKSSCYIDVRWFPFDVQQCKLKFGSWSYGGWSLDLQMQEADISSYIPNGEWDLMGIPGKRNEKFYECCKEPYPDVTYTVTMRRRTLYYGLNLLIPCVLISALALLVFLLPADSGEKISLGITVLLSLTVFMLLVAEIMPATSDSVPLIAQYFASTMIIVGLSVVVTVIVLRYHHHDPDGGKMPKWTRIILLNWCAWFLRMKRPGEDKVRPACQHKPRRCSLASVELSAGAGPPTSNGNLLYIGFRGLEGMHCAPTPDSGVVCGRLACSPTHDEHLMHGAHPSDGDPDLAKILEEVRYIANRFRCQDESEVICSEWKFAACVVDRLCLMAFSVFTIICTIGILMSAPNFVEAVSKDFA

Consider `COc1ccc(CC2C(c3cccnc3)=N[C@H]3CC[C@@H]2C3)c(OC)c1` (stereo partly drawn), for which the negative-log Ki (pKi) in test [1] is 6.66; in test [2] it was 7.79.

Turning to `Oc1ccc(CC2C(c3cccnc3)=N[C@H]3CC[C@@H]2C3)cc1` (stereo partly drawn), the pKi in test [1] is 7.14; in test [2], 7.47.

With `COc1ccc(CC2C(c3cccnc3)=N[C@@H]3CC[C@H]2C3)c(OC)c1` (stereo partly drawn), the pKi in test [1] was 6.46; in test [2], 5.36.

Regarding `Nc1ccc(CC2C(c3cccnc3)=N[C@H]3CC[C@@H]2C3)cc1` (stereo partly drawn), the pKi in test [1] was 7.47; in test [2], 8.46.

One may read the pKi as the negative decadic logarithm of the Ki, by convention in mol/L. A low value points to a large Ki.
